Consider 5 compounds from EP0166357A2, “Benzofused lactams and pharmaceutical compositions containing them” (Merck & Co., Inc., priority 1984, dated 1986).

Broadly, the IC50 is the concentration that gives 50% inhibition.

For the assay, the target named is CCK receptor. Put plainly: 125I-CCK-33 receptor binding assay. The note with it: tissue not stated for the values (methods given for rat pancreas and guinea pig brain cortex membranes); read-out: IC50, inhibition of specific 125I-CCK-33 binding. As to the method: CCK-33 was radiolabeled with […] (2000 Ci/mmole) as described by Sankara et al. [J. Biol. Chem. 254: 9349-9351, (1979)]. Receptor binding was performed according to Innis and Snyder [Proc. Natl. Acad. Sci. 77: 6917-6921, (1980)] with the minor modification of adding the additional protease inhibitors, phenylmethane sulfonyl fluoride and o-phenanthroline. The latter two compounds have no effect on the ^125I-CCK receptor binding assay.
Male Sprague-Dawley rats (200-350g) were sacrificed by decapitation. The whole pancreas was dissected free of fat tissue and was homogenized in 20 volumes of ice-cold 50 mM, Tris HC1 (pH 7.7 at 25°C) with a Brinkman Polytron PT 10. The homogenates were centrifuged at 48,000 g for 10 min. Pellets were resuspended in Tris Buffer, centrifuged as above and resuspended in 200 volumes of binding assay buffer (50 mM Tris HC1, pH 7.7 at 25°C, 5 mM dithiothriethel, 0.1 mM bacitracin, 1.2 mM phenylmethane sulfonyl fluoride and 0.5 mM o-phenanthroline). For the binding assay, 25 µl of buffer (for total binding) or unlabeled CCK-8 sulfate to give a final concentration of luM (for nonspecific binding) or the compounds of Formula 1 (for determination inhibition of 125I-CCR binding) and 25 µl of 125I-CCK-33 (30,000-40,000 cpm) were added to 450 µl of the membrane suspensions in microfuge tubes. All assays were run in duplicate or triplicate. The reaction mixtures were incubated at 37°C for 30 minutes and centrifuged in a Beckman Microfuge (4 minutes) immediately after adding 1 ml of ice-cold incubation buffer. The supernatant was aspirated and discarded, pellets were counted with a Beckman gamma 5000.
CCK-33 was radiolabeled with and the binding was performed according to the description for the pancreas method with modifications according to Saito, et al. (J. Neurochem, 37, 483-490 (1981)).
Hall Hartley guinea pigs (300-500 g) were sacrificed by decapitation and the brains were removed and placed in ice-cold 50 mM, Tris HC1 plus 7.58 g/1 Tritma-7.4 (pH 7.4 at 25°C) Cerebral cortex was dissected and used as a receptor source. Each gram of fresh guinea pig brain tissue was homogenized in 10 ml of Tris/Trizma buffer with a Brinkman polytron PT-10. The homogenates were centrifuged at 42,000 g for 15 minutes. Pellets were resuspended in Tris Buffer, centrifuged as above and resuspended in 200 volumes of binding assay buffer (10 mM HEPES, pH 7.7 at 25°C, 5 mM Mg C12, […], 0.4% BSA (bovine serum albumin) and 0.25 mg/ml bacitracin). For the binding assay, 25 µl of buffer (for total binding) or unlabeled CCK-8 sulfate to give a final concentration of 1µM (for nonspecific binding) or the compounds of Formula 1 (for determination inhibition of ^125I-CCK binding) and 25 µl of ^125I-CCK-33 (30,00-40,000 cpm) were added to 450 µl of the membrane suspensions in microfuge tubes. All assays were run in duplicate or triplicate. The reaction mixtures were incubated at 25°C for 2 hours and centrifuged in a Beckman Microfuge (4 minutes) immedidately after adding 1 ml of ice-cold incubation buffer. The supernatant was aspirated and discarded, pellets were counted with a Beckman gamma 5000.

In the case of `COC(=O)CN1C(=O)C(NCc2c[nH]c3ccccc23)CCc2ccccc21` (racemic) [l-Carbomethoxymethyl-3-(3-indolemethyl)amino homodihydrocarboxtyril], the half-inhibitory concentration (IC50) was 15 µM.

On to `CCOC(=O)C(CCc1ccccc1)NC1CCc2ccccc2N(C)C1=O` (single isomer, unassigned) [1-Methyl-3-(1-Carboethoxy-3-phenyl-1-propyl) aminohomodihydrocarbostyril], for which the 50% inhibitory concentration (IC50) was determined as 60 µM.

For `CC(=O)N[C@H](Cc1c[nH]c2ccccc12)C(=O)NC1CCc2ccccc2N(CC(=O)OC(C)(C)C)C1=O` (single isomer, unassigned) [1-t-Butoxycarbonylmethyl-3-(D-N-acetyltryptophanyl)-aminohomodihydrocarbostyril], the IC50 was 1.6 µM.

`CC(C)(C)OC(=O)CN1C(=O)C(NC(=O)[C@H](Cc2c[nH]c3ccccc23)NC(=O)OCc2ccccc2)CCc2ccccc21` (single isomer, unassigned) [l-t-Butoxycarbonylmethyl-3(-L-N-carbobenzyloxytrypto- phanyl)aminohomodihydrocarbostyril]: the half-inhibitory concentration (IC50) was 1.2 µM.

For `CC(=O)N[C@@H](Cc1c[nH]c2ccccc12)C(=O)NC1CCc2ccccc2N(CC(=O)OC(C)(C)C)C1=O` (single isomer, unassigned) [l-t-Butoxycarbonylmethyl-3-(L-N-acetyltryptophanyl)-aminohomodihydrocarbostyril], the IC50 came to 2.8 µM.
